Experimental data: patent US20260115202A1, “TOPICAL COMPOSITIONS COMPRISING AN ESTETROL COMPONENT AND USE OF SAID COMPOSITIONS FOR WOUND HEALING” (NEURALIS SA, priority 2022, published 2026)
“Also recorded” adds a separate entry of the source.

Assays:
[1] = tested on: mouse bone marrow derived macrophages (BMDM); experiment: M1-polarised murine bone marrow derived macrophages, qPCR of M1 markers; format: cell-based; settings: for relative iNOS expression (M1 cell phenotype): formulations and E2/E4
Experimental: Bones were flushed with DMEM supplemented with 1% penicillin/streptomycin and 1% amphotericin B. Bone marrow cells were seeded into 12- or 6-well plates at 1×10^6 cells/ml in DMEM supplemented with 10% FBS and 10% L929-conditioned medium to induce differentiation. After 7-10 days, differentiated macrophages were treated with 10^−7M E2 or E4 in serum free growth medium for 16 hours and polarised to M1-type cells using 100 ng/ml IFN-γ and 1 μg/ml LPS. Following 6- or 24-hours polarisation cells were collected for RNA isolation or flow cytometry.
Following treatments, human and murine macrophages were collected in Trizol and RNA isolated using the Trizol plus RNA isolation kit (Invitrogen. Thermo Fisher) according to the manufacturer's instructions. RNA was reverse transcribed to cDNA using GoScript reverse transcriptase (Promega). Quantitative real-time PCR was carried out using 2×Takyon SYBR Green mastermix and a CFX Connect thermocycler. Primers for ERα and ERβ were used to explore changes in ER expression after treatment of MEK and MDF with E2 and E4. To investigate the effect of E2 and E4 on MEK differentiation and the expression of ECM proteins by MDF, primers for. Snail, keratin-1 and fibronectin, collagen I. MMP-2 and MMP-9 were used. Primers for INOS. IL-1B and Tnf-α or Ccl17 were used to assess M1/M2 polarisation status. Primers for GAPDH were used to normalise data. Relative gene expression was set to vehicle controls or M0 expression unless otherwise stated.
For follow up experiments murine bone marrow derived monocytes were isolated, differentiated (L929 media) and polarised to a pro-inflammatory M1 phenotype (IFN-γ and LPS: for 6 or 24 hours), and co-treated with either E2 or E4 at the optimal concentration identified in THP1 cells (10^−7: FIG. 24). […] Experiments were then undertaken with murine bone marrow derived monocytes differentiated to macrophages with 30 ng/ml MCSF, as opposed to L929 conditioned media.

[2] = tested on: human dermal fibroblasts (HDF); experiment: Scratch wound assay, human dermal fibroblasts; format: cell-based; settings: for concentration of optimal stimulation of fibroblast scratch wound closure / scratch closure compared to vehicle control: HDF; for scratch closure: HDF fifth donor, 24 hours, DMEM with 2% CS-FBS, 0% FBS or 2% FBS; for scratch closure compared to vehicle control: 36 hours
Description: Primary human dermal fibroblasts (HDF) were isolated from abdominal skin or leg skin. Primary neonatal normal human epidermal keratinocytes (NHEK) were purchased (Lonza). Murine dermal fibroblasts (MDF), murine epidermal keratinocytes (MEK), murine peritoneal macrophages and murine bone marrow were isolated from C57/B16 (wt). NDb (Lepr+/-) or Db (Lepr-/-) mice. Fibroblasts were isolated and cultured in DMEM supplemented with 10% heat inactivated FBS. 1% penicillin/streptomycin and 1% amphotericin B. At least 4 days prior to performing assays cells were switched to DMEM supplemented with 5% charcoal-stripped FBS. Cells were seeded into 24 well plates and cultured to form a confluent monolayer, and then scratched with a 1 ml pipette tip. Wells were treated with E2, E4 and/or various estrogen receptor agonists and antagonists. […] A vehicle control containing the equivalent concentration of EtOH and/or DMSO was included, in addition to an untreated negative control. All treatments were diluted to working concentrations in media supplemented with 2% charcoal-stripped FBS. To visualise scratches at the defined endpoint, cells were stained with crystal violet and imaged on a Nikon E400 brightfield microscope. Scratch closure was determined from multiple independent measurements per well. Scratch assays were performed to quantify the effect of E2 and E4 at varying concentrations on HDF migration (FIG. 14). […] 10^-7M and 10^-6M (152%. 147% and 142% respectively). Thus, both E2 and E4 optimally stimulated fibroblast scratch wound closure at 10^-8M, with the higher magnitude of stimulation observed following E2 treatment. Next, an additional experiment was performed using HDF to a) further confirm the effects of E2 and E4 in fibroblasts from a fifth donor and b) explore the relative effect of including CS-FBS in the cell culture media. Three identical sets of scratch assays were performed (comparing vehicle to E2 or E4 treatment at 10^-7M) in DMEM containing either 2% CS-FBS. 0% FBS or 2% FBS (not CS).

[3] = tested on: murine dermal fibroblasts (MDFs); experiment: Scratch wound assay, murine dermal fibroblasts; format: cell-based, mouse; settings: MDF, 24 hours, versus vehicle control
Description: Primary human dermal fibroblasts (HDF) were isolated from abdominal skin or leg skin. Primary neonatal normal human epidermal keratinocytes (NHEK) were purchased (Lonza). Murine dermal fibroblasts (MDF), murine epidermal keratinocytes (MEK), murine peritoneal macrophages and murine bone marrow were isolated from C57/B16 (wt). NDb (Lepr+/−) or Db (Lepr−/−) mice.
Fibroblasts were isolated and cultured in DMEM supplemented with 10% heat inactivated FBS. 1% penicillin/streptomycin and 1% amphotericin B. At least 4 days prior to performing assays cells were switched to DMEM supplemented with 5% charcoal-stripped FBS.
Cells were seeded into 24 well plates and cultured to form a confluent monolayer, and then scratched with a 1 ml pipette tip. Wells were treated with E2, E4 and/or various estrogen receptor agonists and antagonists. […] A vehicle control containing the equivalent concentration of EtOH and/or DMSO was included, in addition to an untreated negative control. All treatments were diluted to working concentrations in media supplemented with 2% charcoal-stripped FBS. To visualise scratches at the defined endpoint, cells were stained with crystal violet and imaged on a Nikon E400 brightfield microscope. Scratch closure was determined from multiple independent measurements per well.

[4] = L929 differentiated BMDM, M1 polarised 6 or 24 hours, 10^−7, versus vehicle
[5] = L929 differentiated BMDM, M1 polarised
[6] = MCSF differentiated BMDM, M1 polarised
[7] = MCSF differentiated BMDM, M1 polarised, 10^−7M, versus vehicle

| SMILES | expression of M1 markers (iNOS, IL1-β, Tnf-α) [1, 4] | relative iNOS expression (M1 cell phenotype) [1, 5] | expression of M1 marker iNOS [1, 6] | expression of M1 markers (iNOS, IL1-β, Tnf-α) [1, 7] | concentration of optimal stimulation of fibroblast scratch wound closure [2] | scratch closure ([2]; 10^−7M) | scratch closure compared to vehicle control ([2]; 10^−6M) | scratch closure compared to vehicle control ([2]; 10^−7M) [%] | scratch closure compared to vehicle control ([2]; 10^−9M) | scratch closure [3] | scratch closure compared to vehicle control ([2]; 10^−8M) [%] |
| --- | --- | --- | --- | --- | --- | --- | --- | --- | --- | --- | --- |
| C[C@]12CC[C@@H]3c4ccc(O)cc4CC[C@H]3[C@@H]1CC[C@@H]2O [Formulation E2, 17β-estradiol, reference compound] | trend toward decreased expression of a range of M1 markers | significantly dampened the M1 cell phenotype | statistically significant reduction in the M1 marker INOS | strong trend towards reduced expression | 10^−8 M | promoted scratch closure | no difference in closure was observed | 141 | no difference in closure was observed | significantly increased scratch closure compared to vehicle control treatment | – |
| C[C@]12CC[C@@H]3c4ccc(O)cc4CC[C@H]3[C@@H]1[C@@H](O)[C@@H](O)[C@@H]2O [Formulation E4, 1,3,5 (10)-estratrien-3,15alpha, 16alpha, 17beta-tetrol] | trend toward decreased expression of a range of M1 markers | significantly dampened the M1 cell phenotype | statistically significant reduction in the M1 marker INOS | strong trend towards reduced expression | 10^−8 M | promoted scratch closure; also recorded: greatest promotion | 142% | 147 | – | significantly increased scratch closure compared to vehicle control treatment | 152 |
